From patent publication US8614327B2 (Vertex Pharmaceuticals Incorporated, priority 2004, dated 2013) come the findings set out here.

The structures appear in SMILES notation. pEC50: −log10 of the molar value.

For the test, the target named is T1, ΔF508-CFTR (Homo sapiens, UniProt P13569, DEL508-508).
T1 construct: expressed in transfected cells
In words: Membrane potential optical (FRET/VIPR) assay, identification of potentiator compounds. Type of test: cell-based. As to conditions: Table 3, assay not given; for % Activity: relative efficacy. The procedure, abridged: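 NIH3T3 mouse fibroblasts stably expressing ΔF508-CFTR, temperature-corrected 24 h at 27° C., read on VIPR by FRET between CC2-DMPE and DiSBAC2(3). Potentiators identified in a double-addition format, first adding chloride-free (gluconate) medium with or without compound.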

T1 sequence (P13569 with tags, fused parts or gaps DEL508-508): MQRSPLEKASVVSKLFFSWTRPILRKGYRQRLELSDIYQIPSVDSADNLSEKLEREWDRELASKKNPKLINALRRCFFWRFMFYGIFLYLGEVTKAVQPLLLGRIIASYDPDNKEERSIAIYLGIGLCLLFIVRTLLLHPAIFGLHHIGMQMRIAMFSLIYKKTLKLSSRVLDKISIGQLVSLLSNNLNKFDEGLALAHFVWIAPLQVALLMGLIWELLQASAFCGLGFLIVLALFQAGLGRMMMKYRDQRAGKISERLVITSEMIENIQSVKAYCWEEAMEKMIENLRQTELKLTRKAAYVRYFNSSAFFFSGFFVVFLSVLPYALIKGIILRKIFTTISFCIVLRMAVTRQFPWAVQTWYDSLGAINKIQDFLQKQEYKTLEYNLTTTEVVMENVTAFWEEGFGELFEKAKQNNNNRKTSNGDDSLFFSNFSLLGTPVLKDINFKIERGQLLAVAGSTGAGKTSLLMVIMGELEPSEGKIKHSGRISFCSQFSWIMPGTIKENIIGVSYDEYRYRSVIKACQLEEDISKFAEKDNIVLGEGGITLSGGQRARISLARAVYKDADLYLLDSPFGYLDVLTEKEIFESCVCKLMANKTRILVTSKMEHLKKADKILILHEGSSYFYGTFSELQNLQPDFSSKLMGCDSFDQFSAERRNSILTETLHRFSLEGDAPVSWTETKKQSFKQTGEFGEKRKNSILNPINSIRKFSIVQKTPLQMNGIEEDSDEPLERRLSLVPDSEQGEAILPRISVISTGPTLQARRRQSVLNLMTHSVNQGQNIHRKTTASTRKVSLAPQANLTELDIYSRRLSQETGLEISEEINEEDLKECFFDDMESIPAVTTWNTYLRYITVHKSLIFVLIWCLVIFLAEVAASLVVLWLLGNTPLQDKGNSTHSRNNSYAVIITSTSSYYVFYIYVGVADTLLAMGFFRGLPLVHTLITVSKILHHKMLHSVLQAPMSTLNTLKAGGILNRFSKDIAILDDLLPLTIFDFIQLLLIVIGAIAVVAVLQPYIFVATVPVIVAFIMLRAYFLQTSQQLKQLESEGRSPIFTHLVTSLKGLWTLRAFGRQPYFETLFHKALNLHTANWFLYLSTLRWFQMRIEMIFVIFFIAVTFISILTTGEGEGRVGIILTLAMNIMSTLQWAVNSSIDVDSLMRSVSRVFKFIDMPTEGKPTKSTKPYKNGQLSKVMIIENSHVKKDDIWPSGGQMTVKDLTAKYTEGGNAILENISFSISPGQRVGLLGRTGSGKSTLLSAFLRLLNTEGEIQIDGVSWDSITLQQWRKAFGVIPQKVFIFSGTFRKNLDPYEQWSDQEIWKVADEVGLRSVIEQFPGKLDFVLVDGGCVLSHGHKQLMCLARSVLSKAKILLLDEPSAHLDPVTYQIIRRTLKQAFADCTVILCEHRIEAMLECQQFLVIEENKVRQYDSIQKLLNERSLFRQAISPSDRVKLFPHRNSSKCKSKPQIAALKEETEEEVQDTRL

As for `Cc1cc(NC(=O)c2c[nH]c3ccccc3c2=O)ccc1F` [Compound 257, N-(4-fluoro-3-methyl-phenyl)-4-oxo-1H-quinoline-3-carboxamide], the pEC50 is more than 5.00 and the “% Activity” value is “++ (between 25% to 100%)”.
The like results for `O=C(Nc1ccc2c(c1)NCC2)c1c[nH]c2ccccc2c1=O` [Compound 258, N-Indolin-6-yl-4-oxo-1H-quinoline-3-carboxamide] were, in that order, more than 5.00 and “++ (between 25% to 100%)”.
`CCC(C)c1c[nH]c2cc(NC(=O)c3c[nH]c4ccccc4c3=O)ccc12` (centres unmarked) [Compound 259, 4-oxo-N-(3-sec-butyl-1H-indol-6-yl)-1H-quinoline-3-carboxamide]: the pEC50 is more than 5.00 and the “% Activity” value was “++ (between 25% to 100%)”.
`CC(C)(C)c1ccc(N)cc1NC(=O)c1c[nH]c2ccccc2c1=O` [Compound 260, N-(5-Amino-2-tert-butyl-phenyl)-4-oxo-1H-quinoline-3-carboxamide]: the pEC50 was more than 5.00 and the “% Activity” value was “++ (between 25% to 100%)”.
The like results for `Cc1ccc(-c2ccccc2NC(=O)c2c[nH]c3ccccc3c2=O)cc1C` [Compound 261, N-[2-(3,4-dimethylphenyl)phenyl]-4-oxo-1H-quinoline-3-carboxamide] were, in that order, more than 5.00 and “++ (between 25% to 100%)”.
The matching figures for `O=C1CSc2ccc(NC(=O)c3c[nH]c4ccccc4c3=O)cc2N1` [Compound 262, 1,4-dihydro-N-(3,4-dihydro-3-oxo-2H-benzo[b][1,4]thiazin-6-yl)-4-oxoquinoline-3-carboxamide]: more than 5.00 and “++ (between 25% to 100%)”.
The like results for `CCc1cc(Br)ccc1NC(=O)c1c[nH]c2ccccc2c1=O` [Compound 263, N-(4-bromo-2-ethyl-phenyl)-4-oxo-1H-quinoline-3-carboxamide] were, in that order, more than 5.00 and “++ (between 25% to 100%)”.
As to `CCOc1ccc(OCC)c(NC(=O)c2c[nH]c3ccccc3c2=O)c1` [Compound 264, N-(2,5-diethoxyphenyl)-4-oxo-1H-quinoline-3-carboxamide], the pEC50 was 4.60 to 5.00 and the “% Activity” value is on record as “++ (between 25% to 100%)”.
The like results for `O=C(Nc1ccccc1Cc1ccccc1)c1c[nH]c2ccccc2c1=O` [Compound 265, N-(2-benzylphenyl)-4-oxo-1H-quinoline-3-carboxamide] were, in that order, more than 5.00 and “++ (between 25% to 100%)”.
The matching figures for `CC(C)(C)c1cc(C(F)(F)F)c(NC(=O)c2c[nH]c3ccccc3c2=O)cc1O` [Compound 266, N-[5-hydroxy-4-tert-butyl-2-(trifluoromethyl)phenyl]-4-oxo-1H-quinoline-3-carboxamide]: more than 5.00 and “++ (between 25% to 100%)”.
The matching figures for `O=C(Nc1ccc(Oc2ccccc2)cc1)c1c[nH]c2ccccc2c1=O` [Compound 267, 4-oxo-N-(4-phenoxyphenyl)-1H-quinoline-3-carboxamide]: more than 5.00 and “++ (between 25% to 100%)”.
Take `CC(C)(C)c1ccc(NC(=O)c2c[nH]c3ccccc3c2=O)cc1S(N)(=O)=O` [Compound 268, 4-oxo-N-(3-sulfamoyl-4-tert-butyl-phenyl)-1H-quinoline-3-carboxamide]: the pEC50 is 4.60 to 5.00 and the “% Activity” value is on record as “++ (between 25% to 100%)”.
With `CCOC(=O)Nc1ccc(C(C)C)c(NC(=O)c2c[nH]c3ccccc3c2=O)c1` [Compound 269, [4-isopropyl-3-[(4-oxo-1H-quinolin-3-yl)carbonylamino]phenyl]aminoformic acid ethyl ester], the pEC50 is more than 5.00 and the “% Activity” value is given as “++ (between 25% to 100%)”.
The like results for `N#Cc1cc2ccc(NC(=O)c3c[nH]c4ccccc4c3=O)cc2[nH]1` [Compound 270, N-(2-cyano-1H-indol-6-yl)-4-oxo-1H-quinoline-3-carboxamide] were, in that order, more than 5.00 and “++ (between 25% to 100%)”.
As for `CC(C)(C)c1ccc(NC(=O)c2c[nH]c3ccccc3c2=O)cc1N` [Compound 271, N-(3-amino-4-tert-butyl-phenyl)-4-oxo-1H-quinoline-3-carboxamide], the pEC50 is more than 5.00 and the “% Activity” value was “++ (between 25% to 100%)”.
The like results for `O=C(Nc1cc(NS(=O)(=O)CCN2CCOCC2)cc(C(F)(F)F)c1)c1c[nH]c2ccccc2c1=O` [Compound 272, N-[3-(2-morpholinoethylsulfonylamino)-5-(trifluoromethyl)phenyl]-4-oxo-1H-quinoline-3-carboxamide] were, in that order, 4.60 to 5.00 and “++ (between 25% to 100%)”.
Take `CC(C)(C)OC(=O)NC1CCCc2ccc(NC(=O)c3c[nH]c4ccccc4c3=O)cc21` (centres unmarked) [Compound 273, [7-[(4-oxo-1H-quinolin-3-yl)carbonylamino]tetralin-1-yl]aminoformic acid tert-butyl ester]: the pEC50 was more than 5.00 and the “% Activity” value is on record as “+++ (>100%)”.
As to `CC(C)(C)c1cc2cc[nH]c2cc1NC(=O)c1c[nH]c2ccc(S(=O)(=O)N3CCCC3)cc2c1=O` [Compound 274, 4-oxo-6-pyrrolidin-1-ylsulfonyl-N-(5-tert-butyl-1H-indol-6-yl)-1H-quinoline-3-carboxamide], the pEC50 is more than 5.00 and the “% Activity” value is “++ (between 25% to 100%)”.
The like results for `CC(C)(C)c1ccc(NC(=O)c2cnc3ccccc3c2OCc2ccccc2)cc1O` [Compound 275, 4-Benzyloxy-N-(3-hydroxy-4-tert-butyl-phenyl)-quinoline-3-carboxamide] were, in that order, 4.60 to 5.00 and “++ (between 25% to 100%)”.
The matching figures for `O=C(Nc1ccc(S(=O)(=O)N2CCOCC2)cc1)c1c[nH]c2ccccc2c1=O` [Compound 276, N-(4-morpholinosulfonylphenyl)-4-oxo-1H-quinoline-3-carboxamide]: 4.60 to 5.00 and “++ (between 25% to 100%)”.
Consider `O=C(Nc1ccccc1-c1cccc(F)c1)c1c[nH]c2ccccc2c1=O` [Compound 277, N-[2-(3-fluorophenyl)phenyl]-4-oxo-1H-quinoline-3-carboxamide], for which the “% Activity” value is “+++ (>100%)”.
On to `O=C(Nc1ccccc1-c1cccc(C(F)(F)F)c1)c1c[nH]c2ccccc2c1=O` [Compound 278, 4-oxo-N-[2-[3-(trifluoromethyl)phenyl]phenyl]-1H-quinoline-3-carboxamide], for which the pEC50 is more than 5.00 and the “% Activity” value is “++ (between 25% to 100%)”.
As for `CSc1ccccc1-c1ccccc1NC(=O)c1c[nH]c2ccccc2c1=O` [Compound 279, N-[2-(2-methylsulfanylphenyl)phenyl]-4-oxo-1H-quinoline-3-carboxamide], the “% Activity” value is listed as “++ (between 25% to 100%)”.
Take `O=C(Nc1ccc2ncccc2c1)c1c[nH]c2ccccc2c1=O` [Compound 280, 4-oxo-N-(6-quinolyl)-1H-quinoline-3-carboxamide]: the pEC50 was 4.22 to 4.60 and the “% Activity” value was “+ (<25%)”.
The like results for `Cc1ccc(NC(=O)c2c[nH]c3ccccc3c2=O)c(C)c1` [Compound 281, N-(2,4-dimethylphenyl)-4-oxo-1H-quinoline-3-carboxamide] were, in that order, more than 5.00 and “++ (between 25% to 100%)”.
`CCc1ccc(N)cc1NC(=O)c1c[nH]c2ccccc2c1=O` [Compound 282, N-(5-amino-2-ethyl-phenyl)-4-oxo-1H-quinoline-3-carboxamide]: the “% Activity” value is given as “++ (between 25% to 100%)”.
With `COc1cccc(-c2ccccc2NC(=O)c2c[nH]c3ccccc3c2=O)c1` [Compound 283, N-[2-(3-methoxyphenyl)phenyl]-4-oxo-1H-quinoline-3-carboxamide], the pEC50 is more than 5.00 and the “% Activity” value was “+++ (>100%)”.
On to `O=C(Nc1ccc2cn[nH]c2c1)c1c[nH]c2ccccc2c1=O` [Compound 284, N-(1H-indazol-6-yl)-4-oxo-1H-quinoline-3-carboxamide], for which the pEC50 was 4.60 to 5.00 and the “% Activity” value was “++ (between 25% to 100%)”.
The like results for `O=C(Nc1ccccc1-c1cccc(F)c1F)c1c[nH]c2ccccc2c1=O` [Compound 285, N-[2-(2,3-difluorophenyl)phenyl]-4-oxo-1H-quinoline-3-carboxamide] were, in that order, more than 5.00 and “++ (between 25% to 100%)”.
The like results for `O=C(Nc1cccc2c1CCCC2)c1c[nH]c2ccccc2c1=O` [Compound 286, 1,4-dihydro-N-(1,2,3,4-tetrahydronaphthalen-5-yl)-4-oxoquinoline-3-carboxamide] were, in that order, more than 5.00 and “+++ (>100%)”.
The matching figures for `CC1(c2cc(F)c(NC(=O)c3c[nH]c4cccc(O)c4c3=O)cc2O)CCCCC1` [Compound 287, N-[2-fluoro-5-hydroxy-4-(1-methylcyclohexyl)-phenyl]-5-hydroxy-4-oxo-1H-quinoline-3-carboxamide]: more than 5.00 and “++ (between 25% to 100%)”.
In the case of `COC(=O)Oc1c(NC(=O)c2c[nH]c3ccccc3c2=O)cc(F)cc1C(C)(C)C` [Compound 288, N-(5-fluoro-2-methoxycarbonyloxy-3-tert-butyl-phenyl)-4-oxo-1H-quinoline-3-carboxamide], the pEC50 was more than 5.00 and the “% Activity” value is reported as “++ (between 25% to 100%)”.
As for `Cc1ccc(NC(=O)c2c[nH]c3ccccc3c2=O)c(F)c1` [Compound 289, N-(2-fluoro-4-methyl-phenyl)-4-oxo-1H-quinoline-3-carboxamide], the pEC50 was more than 5.00 and the “% Activity” value is on record as “++ (between 25% to 100%)”.
As to `CC(C)c1cccc(-c2ccccc2NC(=O)c2c[nH]c3ccccc3c2=O)c1` [Compound 290, N-[2-(3-isopropylphenyl)phenyl]-4-oxo-1H-quinoline-3-carboxamide], the pEC50 was more than 5.00 and the “% Activity” value is “++ (between 25% to 100%)”.

For orientation: pEC50 means the negative decadic logarithm of the EC50, by convention in mol/L.
